For the test, the system named is L1210 leukemia ip in BDF1 mice, survival T/C. Nature of the test: NCI In Vivo Anticancer Drug Screen. Data for tumor model L1210 Leukemia (intraperitoneal) in B6D2F1 (BDF1) mice. The note with it: endpoint: mean survival time, higher = longer survival. The procedure, abridged:
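Value reflects the ratio of survival in compound-treated mice to survival in vehicle-treated controls, with both groups carrying the same transplanted tumor.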

Inconclusive results and toxic doses are left out.

Take `COc1ccc(OC)c(C2N(Cc3ccc(N(C)C)cc3)CCCN2Cc2ccc(N(C)C)cc2)c1`: the T/C runs as follows: (dose: 50.0 mg/kg/injection, schedule: Q01DX009 (ip), vehicle: saline with Tween-80) 93 % of control; (dose: 100.0 mg/kg/injection, schedule: Q01DX009 (ip), vehicle: saline with Tween-80) 93 % of control; (dose: 200.0 mg/kg/injection, schedule: Q01DX009 (ip), vehicle: saline with Tween-80) 90 % of control.

`C=CCCC(=O)O`: the T/C is, setting by setting: (dose: 50.0 mg/kg/injection, schedule: Q01DX001 (ip), vehicle: saline with Tween-80) 96 % of control; (dose: 100.0 mg/kg/injection, schedule: Q01DX001 (ip), vehicle: saline with Tween-80) 100 % of control; (dose: 200.0 mg/kg/injection, schedule: Q01DX001 (ip), vehicle: saline with Tween-80) 91 % of control.

In the case of `CCN=C(c1ccc(NC(=O)c2ccc(C(=O)Nc3ccc(C(=NCC)N(CC)CC)cc3)c(Cl)c2)cc1)N(CC)CC`, the T/C (dose: 0.94 mg/kg/injection, schedule: Q01DX Z (ip), vehicle: carboxymethylcellulose (CMC)) was 94 % of control.

The record behind these values is PubChem BioAssay AID248 (DTP/NCI, 2004).
